Assay results reported in patent US20180037923A1, “SELECTIVE DETECTION OF LACTIC ACID AND/OR ACETIC ACID BACTERIA OR OF FUNGI” (priority 2015, published 2018).
Where “and” joins values, the source holds several entries; their conditions need not be identical. Equal values may be shown once.

Legend:
[1] = system: Lactobacillus parabuchneri DSM 5708; test: Agar plate count after contact with antifungal; type: cell-based; settings: count at contact time 0 h 1.4.10^6 CFU/mL
From the text: (§1) The word “bactericide” refers to a treatment having the effect of reducing a bacterial population by at least three decimal logarithms of colony forming units/ml on an agar plate count of a sample after treatment.
(§2) The toxicity results on yeasts and on bacteria are presented in the table below displaying the duration of exposure of the fungal flora to molecule A1 and the associated fluorescence measurement: yeasts lysis after exposure to the antifungal was confirmed by microscopic examination and methylene blue staining.
(§3) The words “contact time” refer to below, the time of exposure of the microorganisms to the fungicidal product, here molecule A1.
(§4) Below: “No CFU” is the abbreviation for “No Colony forming unit on agar plate count”.
(§5) The toxicity results on yeasts and on bacteria are presented in the table below displaying the duration of exposure of the fungal flora to the molecule A2 and are obtained by enumeration on MRS agar media.

[2] = system: Oenococcus oeni DSM 20252; test: Agar plate count after contact with antifungal; type: cell-based
From the text: as §1, §2, §3, §4, §5

[3] = system: Lactobacillus lindneri DSM 20690; test: Agar plate count after contact with antifungal; type: cell-based
From the text: as §1, §2, §3, §4, §5

[4] = system: Zyggosaccharomyces bailii; test: Agar plate count after contact with antifungal; type: cell-based; settings: 400 mg/L; count at contact time 0 h 3.10^5 CFU/mL
From the text: as §1, §2, §3, §4, §5

[5] = system: Lactobacillus brevis IFBM; test: Agar plate count after contact with antifungal; type: cell-based; settings: count at contact time 0 h 7.10^5 CFU/mL
From the text: as §1, §2, §3, §4, §5

Pedicoccus damnosus IFBM = test: Agar plate count after contact with antifungal; type: cell-based
From the text: as §1, §2, §3, §4, §5

[6] = system: Brettanomyces bruxellensis Wyeast labs; test: Agar plate count after contact with antifungal; type: cell-based
From the text: as §1, §2, §3, §4, §5

Dekkera anomala IFBM = test: Agar plate count after contact with antifungal; type: cell-based; settings: 400 mg/L; count at contact time 0 h 1.10^5 CFU/mL
From the text: as §1, §2, §3, §4, §5

[7] = system: Acetobacter aceti DSM 3508; test: Agar plate count after contact with antifungal; type: cell-based; settings: count at contact time 0 h 2.9.10^7 CFU/mL
From the text: as §1, §2, §3, §4, §5

[8] = system: Lactobacillus paracasei IFBM; test: Agar plate count after contact with antifungal; type: cell-based; settings: count at contact time 0 h 1.4.10^7 CFU/mL
From the text: as §1, §2, §3, §4, §5

[9] = system: Saccharomyces cerevisae DSM; test: Atpmetry check, initial protocol (Filtravette), with plate count; type: cell-based; settings: Antifungal 4 h contact time
Method: (§6) For the molecule A1, an Atpmetry check of the fungal flora destruction and of the antifungal treatment harmlesness on the lactic acid or acetic acid bacterial flora has been done for a contact time of 4 hours or 8 hours and on different strains.
(§7) Strains tested: Oenococcus oeni DSM, Gluconobacter oxydans, B. bruxellensis, S. cerevisae, prepared in MRS broth.
(§8) Materials: Lum-1 ATP meter (model analogous to Profile-1 bioluminometer from New Horizons Diagnostics) was tested with Biothema Ab bioluminescence reagents, namely reagents “ATP Eliminating Buffer”, “Extractant B/S”, “ATP Reagent HS” and 0.45 μm porosity Filtravette™ cuvette-filters from New Horizons Diagnostics.
(§9) Addition of 500 μL of the suspension without fungicidal treatment or with fungicidal treatment inside a 10 mL plastic syringe containing at its end a cell concentrator incorporating a Filtravette™.
(§10) Filtration through the Filtravette™
(§11) Filtravette™ deposit on a Filtravette™ holder with a blotter pad below
(§12) Addition of 50 μL of “ATP Eliminating Buffer” inside the Filtravette
(§13) 10 minutes incubation at room temperature
(§14) Flushing of the “ATP Eliminating Buffer” Reagent through the blotter pad by positive pressure
(§15) Homogenization and 1 minute incubation.
(§16) Addition of 240 μL of “ATP Reagent HS”. Homogenization.
(§17) Insertion of the Filtravette into the Lum-1 drawer and closure of the drawer.

Oenococcus oeni DSM = test: as above; type: cell-based; settings: 4 h contact time; without antifungal 0.9.10^7 CFU/500 μL
Method: as §6, §7, §8, §9, §10, §11, §12, §13, §14, §15, §16, §17

Gluconobacter oxydans = test: as above; type: cell-based
Method: as §6, §7, §8, §9, §10, §11, §12, §13, §14, §15, §16, §17

[10] = system: Brettanomyces bruxellensis; test: as above; type: cell-based; settings: 4 h contact time; without antifungal 2.8.10^6 CFU/500 μL
Method: as §6, §7, §8, §9, §10, §11, §12, §13, §14, §15, §16, §17

yeasts = test: Microscopic examination and methylene blue staining of yeasts after antifungal; type: cell-based
From the text: as §2

[11] = system: Sacch. Cerevisae DSM 70449; test: Agar plate count after contact with antifungal; type: cell-based, Saccharomyces cerevisae; settings: 400 mg/L; count at contact time 0 h 8.10^4 CFU/mL
From the text: as §1, §2, §3, §4, §5

G. oxydans DSM 7145 = test: Agar plate count after contact with antifungal; type: cell-based, Gluconobacter oxydans
From the text: as §1, §2, §3, §4, §5

[12] = system: Saccharomyces diastaticus; test: Atp bioluminescence, simplified protocol, with plate count; settings: Treated (4 h)
[13] = system: Brettanomyces bruxellensis; test: as above; type: cell-based; settings: Treated 8 h antifungal contact time
Method: Use of […] transparent Greiner Bio One sterile flat bottom disposable cuvettes with Biothema AB bioluminescence reagents • 1. […] Addition of 150 μL of “ATP Reagent HS”, Homogenization. • 4.

[14] = 200 mg/L, count at contact time 0 h 6.10^6 CFU/mL

C[C@@H]1[C@H](O)[C@@H](C)/C=C/C=C/C=C/C=C/C=C/C=C/C=C/[C@H](O[C@@H]2O[C@H](C)[C@@H](O)[C@H](N)[C@@H]2O)C[C@@H]2O[C@](O)(C[C@@H](O)C[C@@H](O)[C@H](O)CC[C@@H](O)C[C@@H](O)CC(=O)O[C@H]1C)C[C@H](O)[C@H]2C(=O)O [Molecule A1, Amphotericin B]
Agar plate count contact time 4 h ([1]; 200 mg/L): 1.10^6 CFU/mL
Agar plate count contact time 4 h ([1]; 400 mg/L): 3.10^5 CFU/mL
Agar plate count contact time 4 h ([2]; 200 mg/L, count at contact time 0 h 4.10^9 CFU/mL): 6.10^9 CFU/mL
Agar plate count contact time 4 h ([2]; 400 mg/L, count at contact time 0 h 4.10^7 CFU/mL): 5.10^7 CFU/mL
Agar plate count contact time 4 h [3, 14]: 2.10^6 CFU/mL
Agar plate count contact time 4 h ([3]; 400 mg/L, count at contact time 0 h 6.10^5 CFU/mL): 7.10^4 CFU/mL
Agar plate count contact time 4 h [4]: No CFU
Agar plate count contact time 4 h ([5]; 200 mg/L): 2.9.10^5 CFU/mL
Agar plate count contact time 4 h ([5]; 400 mg/L): 3.10^5 CFU/mL
Agar plate count contact time 4 h (Pedicoccus damnosus IFBM; 200 mg/L, count at contact time 0 h 7.2.10^5 CFU/mL): 8.10^5 CFU/mL
Agar plate count contact time 4 h (Pedicoccus damnosus IFBM; 400 mg/L, count at contact time 0 h 1.1.10^5 CFU/mL): 2.10^7 CFU/mL
Agar plate count contact time 4 h [6, 14]: No CFU
Agar plate count contact time 4 h ([6]; 400 mg/L, count at contact time 0 h 3.10^5 CFU/mL): No CFU
Agar plate count contact time 4 h (Dekkera anomala IFBM): No CFU
Agar plate count contact time 4 h ([7]; 200 mg/L): 8.10^8 CFU/mL
Agar plate count contact time 4 h ([7]; 400 mg/L): 3.10^7 CFU/mL
Agar plate count contact time 4 h ([8]; 200 mg/L): 2.4.10^7 CFU/mL
Agar plate count contact time 4 h ([8]; 400 mg/L): 1.10^7 CFU/mL
Agar plate count with antifungal ([9]; start 5.10^2 CFU/500 μL): time no count on agar
Atp bioluminescence with antifungal treatment ([9]; start 5.10^2 CFU/500 μL, untreated 206949 and 149508 RLU): 642 RLU
Agar plate count with antifungal ([9]; start 5.10^3 CFU/500 μL): time no count on agar
Atp bioluminescence with antifungal treatment ([9]; start 5.10^3 CFU/500 μL, untreated >1000000 RLU): 4665 RLU
Plate count with antifungal (Oenococcus oeni DSM): 4.10^6 CFU/500 μL
Atp bioluminescence with antifungal treatment (Gluconobacter oxydans; MRS broth, 500 μL analysed, 1.10^7 CFU/500 μL before treatment, 115966 RLU): 77057 RLU
Plate count with antifungal (Gluconobacter oxydans; before treatment 1.10^7 CFU/500 μL): 4.1.10^6 CFU/500 μL
Plate count with antifungal [10]: 0 CFU/500 μL
yeasts lysis after exposure to the antifungal (yeasts): confirmed
Agar plate count contact time 4 h [11]: No CFU
Agar plate count contact time 4 h (G. oxydans DSM 7145; 200 mg/L, count at contact time 0 h 8.10^8 CFU/mL): 1.10^9 CFU/mL
Agar plate count contact time 4 h (G. oxydans DSM 7145; 400 mg/L, count at contact time 0 h 8.10^7 CFU/mL): 9.10^7 CFU/mL
total bioluminescence in duplicate with lysis agent ([12]; start 7.5.10^1 CFU/100 μL, untreated + extractant 1934 and 1241 RLU): 482 RLU
luminescent backgroud noise in duplicate without lysis agent after luciferin/luciferase addition ([12]; start 7.5.10^1 CFU/100 μL, untreated background 34 and 34 RLU): 457 RLU and 436 RLU
total bioluminescence in duplicate with lysis agent ([12]; start 7.5.10^2 CFU/100 μL, untreated + extractant 16239 and 16707 RLU): 4393 RLU
luminescent backgroud noise in duplicate without lysis agent after luciferin/luciferase addition ([12]; start 7.5.10^2 CFU/100 μL, untreated background 211 and 223 RLU): 3803 RLU and 3837 RLU
Concentration after treatment ([12]; untreated 7.5.10^1 CFU/100 μL): 0 CFU/100 μL
Concentration after treatment ([12]; untreated 7.5.10^2 CFU/100 μL): 0 CFU/100 μL
total bioluminescence with lysis agent ([13]; start 2.7.10^2 CFU/100 μL, untreated with lysis agent 26990 and 31661, background 862 and 718 RLU): 933 RLU and 553 RLU
total bioluminescence with lysis agent ([13]; start 2.7.10^3 CFU/100 μL, untreated with lysis agent 242958 and 265513, background 5346 and 5390 RLU): 4441 RLU and 4433 RLU
Concentration after treatment ([13]; untreated 2.7.10^2 CFU/100 μL): 0 CFU/100 μL
Concentration after treatment ([13]; untreated 2.7.10^3 CFU/100 μL): 0 CFU/100 μL
